In patent publication US11697646B2, “Triazole N-linked carbamoyl cyclohexyl acids as LPA antagonists” (BRISTOL-MYERS SQUIBB COMPANY, priority 2017, dated 2023):

What follows are molecules tested against T1, human LPA1 (Homo sapiens, UniProt Q92633) (assay: LPA1 functional antagonist assay (calcium flux)). Details: CHO cells overexpressing human LPA1; calcium flux induced by 10 nM LPA; read-out: hLPA1 IC50.
T1 construct: expressed in transfected cells; host or cells: Chinese hamster ovary (CHO) cells
T1 sequence (Q92633 whole entry): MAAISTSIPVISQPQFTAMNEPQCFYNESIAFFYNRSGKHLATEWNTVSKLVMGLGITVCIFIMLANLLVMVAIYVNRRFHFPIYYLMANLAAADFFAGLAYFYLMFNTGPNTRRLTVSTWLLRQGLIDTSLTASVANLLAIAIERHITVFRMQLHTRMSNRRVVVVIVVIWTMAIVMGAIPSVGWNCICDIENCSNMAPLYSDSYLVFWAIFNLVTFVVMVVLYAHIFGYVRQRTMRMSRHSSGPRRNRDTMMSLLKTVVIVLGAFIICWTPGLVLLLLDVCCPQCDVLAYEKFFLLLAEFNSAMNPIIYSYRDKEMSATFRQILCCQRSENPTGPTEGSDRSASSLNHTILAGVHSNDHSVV
Type: cell-based
Procedure: The effectiveness of compounds of the present invention as LPA1 inhibitors can be determined in an LPA1 functional antagonist assay as follows:
The cells were then equilibrated to room temperature for 30 minutes before the assay. […] IC50 values were determined by fitting data to a 4-parameter logistic equation (GraphPad Prism, San Diego Calif.).

Row | IC50 | SMILES
1 | 143 nM | CCc1nc(-c2nnn(C)c2CNC(=O)N(C)Cc2ccccc2)ccc1O[C@H]1CCC[C@H](C(=O)O)C1 [Example 149, (1S,3S)-3-((6-(5-((3-benzyl-3-methylureido)methyl)-1-methyl-1H-1,2,3-triazol-4-yl)-2-ethyl-pyridin-3-yl)oxy)cyclohexane-1-carboxylic acid]
2 | 44 nM | CCCCN(C)C(=O)NCc1c(-c2ccc(O[C@H]3CCC[C@H](C(=O)O)C3)c(CC)n2)nnn1C [Example 150, (1S,3S)-3-((6-(5-((3-butyl-3-methylureido)methyl)-1-methyl-1H-1,2,3-triazol-4-yl)-2-ethyl-pyridin-3-yl)oxy)cyclohexane-1-carboxylic acid]
3 | 647 nM | CCCCNC(=O)NCc1c(-c2ccc(O[C@H]3CCC[C@H](C(=O)O)C3)c(CC)n2)nnn1C [Example 151, (1S,3S)-3-((6-(5-((3-butyl-ureido)methyl)-1-methyl-1H-1,2,3-triazol-4-yl)-2-ethylpyridin-3-yl)oxy)cyclohexane-1-carboxylic acid]
4 | 270 nM | CCc1nc(-c2nnn(C)c2CNC(=O)NCC2CC2)ccc1O[C@H]1CCC[C@H](C(=O)O)C1 [Example 152, (1S,3S)-3-((6-(5-((3-(cyclopropyl-methyl)ureido)methyl)-1-methyl-1H-1,2,3-triazol-4-yl)-2-ethyl-pyridin-3-yl)oxy)cyclohexane-1-carboxylic acid]
5 | 107 nM | CCc1nc(-c2nnn(C)c2CNC(=O)NCc2ccccc2)ccc1O[C@H]1CCC[C@H](C(=O)O)C1 [Example 153, (1S,3S)-3-((6-(5-((3-benzyl-ureido)methyl)-1-methyl-1H-1,2,3-triazol-4-yl)-2-ethylpyridin-3-yl)oxy)cyclohexane-1-carboxylic acid]

Same assay, conditions: human LPA1 functional antagonist assay; read-out: hLPA1 IC50

Row | SMILES | IC50
6 | CC(COC(=O)NCc1c(-c2ncc(O[C@H]3CCC[C@H](C(=O)O)C3)cn2)nnn1C)CC(F)(F)F (stereo partly drawn) [Example 154, (1S,3S)-3-((2-(1-methyl-5-((((4,4,4-trifluoro-2-methylbutoxy)carbonyl)amino)methyl)-1H-1,2,3-triazol-4-yl)pyrimidin-5-yl)oxy)cyclohexane-1-carboxylic acid] | 2900 nM
7 | Cc1nc(-c2nnn(C)c2CNC(=O)OCC(C)CC(F)(F)F)cnc1O[C@H]1CCC[C@H](C(=O)O)C1 (stereo partly drawn) [Example 155, (1S,3S)-3-((3-methyl-5-(1-methyl-5-((((4,4,4-trifluoro-2-methylbutoxy)carbonyl)amino)methyl)-1H-1,2,3-triazol-4-yl)pyrazin-2-yl)oxy)cyclohexane-1-carboxylic acid] | 85 nM
8 | Cc1nc(-c2nnn(C)c2CNC(=O)OCC2CCC2)cnc1O[C@H]1CCC[C@H](C(=O)O)C1 [Example 156, (1S,3S)-3-((5-(5-((((cyclobutyl-methoxy)carbonyl)amino)methyl)-1-methyl-1H-1,2,3-triazol-4-yl)-3-methylpyrazin-2-yl)oxy)cyclohexane-1-carboxylic acid] | 213 nM
9 | Cc1nc(-c2nnn(C)c2CNC(=O)OCCC(C)(C)C)cnc1O[C@H]1CCC[C@H](C(=O)O)C1 [Example 158, (1S,3S)-3-((5-(5-((((3,3-dimethyl-butoxy)carbonyl)amino)methyl)-1-methyl-1H-1,2,3-triazol-4-yl)-3-methylpyrazin-2-yl)oxy)cyclo-hexane-1-carboxylic acid] | 76 nM
10 | Cc1nc(-c2nnn(C)c2CNC(=O)OCc2cccc(F)c2)cnc1O[C@H]1CCC[C@H](C(=O)O)C1 [Example 159, (1S,3S)-3-((5-(5-(((((3-fluorobenzyl)oxy)carbonyl)amino)methyl)-1-methyl-1H-1,2,3-triazol-4-yl)-3-methylpyrazin-2-yl)oxy)cyclo-hexane-1-carboxylic acid] | 122 nM
11 | Cc1nc(-c2nnn(C)c2CNC(=O)OCCC2CC2)cnc1O[C@H]1CCC[C@H](C(=O)O)C1 [Example 160, (1S,3S)-3-((5-(5-((((2-cyclopropylethoxy)carbonyl)amino)methyl)-1-methyl-1H-1,2,3-triazol-4-yl)-3-methylpyrazin-2-yl)oxy)cyclo-hexane-1-carboxylic acid] | 66 nM
12 | CC[C@H](C)COC(=O)NCc1c(-c2cnc(O[C@H]3CCC[C@H](C(=O)O)C3)c(C)n2)nnn1C [Example 161, (1S,3S)-3-((3-methyl-5-(1-methyl-5-(((((S)-2-methylbutoxy)carbonyl)amino)methyl)-1H-1,2,3-triazol-4-yl)pyrazin-2-yl)oxy)cyclohexane-1-carboxylic acid] | 109 nM
13 | Cc1nc(-c2nnn(C)c2CNC(=O)OCCCCF)ccc1O[C@H]1CCC[C@H](C(=O)O)C1 [Example 162, (1S,3S)-3-((6-(5-((((4-fluorobutoxy)carbonyl)amino)methyl)-1-methyl-1H-1,2,3-triazol-4-yl)-2-methyl-pyridin-3-yl)oxy)cyclohexane-1-carboxylic acid] | 60 nM
14 | Cc1nc(-c2nnn(C)c2CNC(=O)OC2CC(C)(C)C2)ccc1O[C@H]1CCC[C@H](C(=O)O)C1 [Example 168, (1S,3S)-3-((6-(5-((((3,3-dimethyl-cyclobutoxy)carbonyl)amino)methyl)-1-methyl-1H-1,2,3-triazol-4-yl)-2-methylpyridin-3-yl)oxy)cyclo-hexane-1-carboxylic acid] | 90 nM
15 | Cc1nc(-c2nnn(C)c2CNC(=O)OCCCC(F)(F)F)ccc1O[C@H]1CCC[C@H](C(=O)O)C1 [Example 169, (1S,3S)-3-((2-methyl-6-(1-methyl-5-((((4,4,4-trifluorobutoxy)carbonyl)amino)methyl)-1H-1,2,3-triazol-4-yl)pyridin-3-yl)oxy)cyclohexane-1-carboxylic acid] | 55 nM
16 | CC[C@@H](C)OC(=O)NCc1c(-c2ccc(O[C@H]3CCC[C@H](C(=O)O)C3)c(C)n2)nnn1C [Example 172, (1S,3S)-3-((6-(5-((((R)-sec-butoxycarbonyl)amino)methyl)-1-methyl-1H-1,2,3-triazol-4-yl)-2-methyl-pyridin-3-yl)oxy)cyclohexane-1-carboxylic acid] | 152 nM

Other lines, results leading:

Row | IC50 | SMILES
17 | 19 nM | Cc1nc(-c2nnn(C)c2CNC(=O)OCCC2CC2)ccc1O[C@H]1CCC[C@H](C(=O)O)C1 [Example 157, (1S,3S)-3-((6-(5-((((2-cyclopropyl-ethoxy)carbonyl)amino)methyl)-1-methyl-1H-1,2,3-triazol-4-yl)-2-methylpyridin-3-yl)oxy)cyclo-hexane-1-carboxylic acid]
18 | 88 nM | Cc1nc(-c2nnn(C)c2CNC(=O)OCC2(CCF)CC2)ccc1O[C@H]1CCC[C@H](C(=O)O)C1 [Example 163, (1S,3S)-3-((6-(5-(((((1-(2-fluoro-ethyl)cyclopropyl)methoxy)carbonyl)amino)methyl)-1-methyl-1H-1,2,3-triazol-4-yl)-2-methylpyridin-3-yl)oxy)cyclohexane-1-carboxylic acid]
19 | 65 nM | Cc1nc(-c2nnn(C)c2CNC(=O)OCC2CC2(C)C)ccc1O[C@H]1CCC[C@H](C(=O)O)C1 (stereo partly drawn) [Example 164, (1S,3S)-3-((6-(5-(((((2,2-dimethyl-cyclopropyl)methoxy)carbonyl)amino)methyl)-1-methyl-1H-1,2,3-triazol-4-yl)-2-methylpyridin-3-yl)oxy)cyclohexane-1-carboxylic acid]
20 | 34 nM | CCC[C@H](C)OC(=O)NCc1c(-c2ccc(O[C@H]3CCC[C@H](C(=O)O)C3)c(C)n2)nnn1C [Example 165, (1S,3S)-3((2-methyl-6-(1-methyl-5-((((((S)-pentan-2-yl)oxy)carbonyl)amino)methyl)-1H-1,2,3-triazol-4-yl)pyridin-3-yl)oxy)cyclohexane-1-carboxylic acid]
21 | 121 nM | Cc1nc(-c2nnn(C)c2CNC(=O)OCCCCC(F)(F)F)ccc1O[C@H]1CCC[C@H](C(=O)O)C1 [Example 166, (1S,3S)-3-((2-methyl-6-(1-methyl-5-(((((5,5,5-trifluoropentyl)oxy)carbonyl)amino)methyl)-1H-1,2,3-triazol-4-yl)pyridin-3-yl)oxy)cyclohexane-1-carboxylic acid]
22 | 427 nM | Cc1nc(-c2nnn(C)c2CNC(=O)O[C@H](C)C2CC2)ccc1O[C@H]1CCC[C@H](C(=O)O)C1 [Example 167, (1S,3S)-3-((6-(5-(((((R)-1-cyclo-propylethoxy)carbonyl)amino)methyl)-1-methyl-1H-1,2,3-triazol-4-yl)-2-methylpyridin-3-yl)oxy)cyclohexane-1-carboxylic acid]
23 | 92 nM | Cc1nc(-c2nnn(C)c2CNC(=O)O[C@H](C)C(C)C)ccc1O[C@H]1CCC[C@H](C(=O)O)C1 [Example 170, (1S,3S)-3-((2-methyl-6-(1-methyl-5-((((((R)-3-methylbutan-2-yl)oxy)carbonyl)amino)methyl)-1H-1,2,3-triazol-4-yl)pyridin-3-yl)oxy)cyclohexane-1-carboxylic acid]
24 | 76 nM | CCC[C@@H](C)OC(=O)NCc1c(-c2ccc(O[C@H]3CCC[C@H](C(=O)O)C3)c(C)n2)nnn1C [Example 171, (1S,3S)-3-((2-methyl-6-(1-methyl-5-((((((R)-pentan-2-yl)oxy)carbonyl)amino)methyl)-1H-1,2,3-triazol-4-yl)pyridin-3-yl)oxy)cyclohexane-1-carboxylic acid]
25 | 167 nM | Cc1nc(-c2nnn(C)c2CNC(=O)O[C@@H](C)C(C)C)ccc1O[C@H]1CCC[C@H](C(=O)O)C1 [Example 173, (1S,3S)-3((2-methyl-6-(1-methyl-5-((((((S)-3-methylbutan-2-yl)oxy)carbonyl)amino)methyl)-1H-1,2,3-triazol-4-yl)pyridin-3-yl)oxy)cyclohexane-1-carboxylic acid]
26 | 101 nM | Cc1nc(-c2nnn(C)c2CNC(=O)O[C@@H](C)C(F)(F)F)ccc1O[C@H]1CCC[C@H](C(=O)O)C1 [Example 174, (1S,3S)-3-((2-methyl-6-(1-methyl-5-((((((S)-1,1,1-trifluoropropan-2-yl)oxy)carbonyl)amino)methyl)-1H-1,2,3-triazol-4-yl)pyridin-3-yl)oxy)cyclohexane-1-carboxylic acid]
